Source: PMC12677699, “Utilizing Proteolytic‐Resistant Nano‐Short Peptide Based on Naphthyl Tail‐Anchored to Combat Bacterial Infections” (Advanced Science, 2025)

Key:
[1] = Critical aggregation concentration, 1,8-ANS fluorescence; assay type: physicochemical; details: 1,8-ANS 1 × 10^−6 M, peptide 2-256 × 10^−6 M in deionized water, 1 h, ex 360 nm, em 420–670 nm, linear fitting of fluorescence intensities
Method: The self‐assembly behavior of nano‐short peptides was characterized by determining the CAC using 1,8‐ANS as a hydrophobic fluorescent probe.^[ [32] ^] Serial peptide dilutions (2‐256 × 10^−6 M in 50 µL deionized water) were prepared in 96‐well plates. 1,8‐ANS powder was solubilized in dimethylformamide (DMF) and added to the 96‐well plates (final concentration of 1 × 10^−6 M), and deionized water solution containing 1,8‐ANS was used as a blank control. After incubation for 1 h, the fluorescence emission spectra were continuously monitored with a microplate reader (Tecan Infinite200 Pro, λ excitation = 360 nm, λ emission = 420–670 nm). CAC values were determined by linear fitting of representative fluorescence intensities.

E. coli ATCC 25922 [2] = assay: Intracellular ATP determination; assay type: cell-based, Escherichia coli; details: 16 × 10^−6 M, E. coli ATCC 25922, 1 h, 37 °C; n = 3
Method: The intracellular ATP levels of E. coli ATCC 25922 and S. aureus ATCC 29213 after nano‐short peptides treatment were detected using an Enhanced ATP Assay Kit.^[ [59] ^] Logarithmic growth stage E. coli ATCC 25922 and S. aureus ATCC 29213 bacterial solutions were diluted to OD600 = 0.4 in MHB liquid medium. Then, the bacterial dilutions were co‐incubated with different concentrations of nano‐short peptides at 37 °C for 1 h. After incubation, the bacterial dilutions were centrifuged (12 000 rpm, 5 min, 4 °C) to pellet the cells. The resulting bacterial pellets were processed according to the steps in the kit. Finally, the chemiluminescence was detected by a microplate reader.

S. aureus ATCC 29213 [3] = assay: Time-kill kinetics; assay type: cell-based, Staphylococcus aureus; details: PBS pH 7.4, n = 3
Method: Samples were collected at pre‐determined time points post‐exposure, serially diluted, and plated on Mueller‐Hinton agar (MHA) for viable colony counting after 18–24 h incubation at 37 °C. Untreated bacterial suspensions served as controls.

E. coli = assay: In vivo peritonitis-sepsis model; design: species or system mouse; details: 14 h, n = 8
Method: The mice used in the peritonitis‐sepsis model were consistent with those employed in the in vivo toxicity assessment. Twenty‐four mice were randomly divided into three groups after a 3‐day pre‐feeding period. The mice in the control group received intraperitoneal injections of 100 µL of saline, followed by an additional 100 µL of saline 1 h later. The mice in the other two groups were administered intraperitoneal injections of 100 µL of a saline‐diluted E. coli suspension (OD600 = 0.6), and subsequently received either 100 µL of saline (E. coli‐infected group) or 10 mg kg^−1 of N4(N4‐treated group) 1 h later. 14 h post‐infection, the mice were euthanized via ether inhalation anesthesia, and blood samples were collected from the orbital vein for the analysis of inflammatory factors (IL‐1β, IL‐6, TNF‐α, and IL‐10).^[ [71] ^] In addition, peritoneal fluid was aseptically collected via peritoneal lavage with sterile saline. The liver, spleen, and kidneys were harvested, weighed, and homogenized. Homogenized samples were plated on Mueller‐Hinton agar (MHA) solid medium for overnight incubation, and bacterial load was quantified the next day. Sections of the liver, spleen, and kidneys were obtained for histological analysis employing H&E staining. Besides, the spleens were specifically selected for immunofluorescence analysis to assess the expression levels of IL‐10, TNF‐α, CD206, and CD86.

[4] = Dynamic light scattering and zeta potential; assay type: physicochemical; details: 16 × 10^−6 M in deionized water; n = 3
Method: N4 was diluted to 16 × 10^−6 M using deionized water and added to disposable plastic cuvettes, and the kinetic diameters was determined using a Zetasizer Nano Z90 (Malvern Instruments, Worcestershire, U.K.).^[ [29] ^] N4 was diluted to 16 × 10^−6 M using deionized water and added to the electrode cups, and the zeta potential was determined using a Zetasizer Nano Z90 (Malvern Instruments, Worcestershire, UK).^[ [29] ^]

E. coli ATCC 25922 [5] = assay: Live/dead staining, PI and SYTO 9; assay type: cell-based, Escherichia coli
From the text: Finally, a fluorescence microscope (EVOS FL Auto, Massachusetts, USA) was used to observe the fluorescence images of the bacteria under different background colors and representative pictures were taken.

S. aureus ATCC 29213 [6] = assay: Flow cytometry, PI; assay type: cell-based, Staphylococcus aureus; details: 16 × 10^−6 M N4, 1 h, control 1.23%
Method: The bacterial samples were incubated with N4 for 1 h and then incubated with the PI dye (at a final concentration of 10 µg mL^−1) for a further 15 min. Finally, bacteria containing PI dye were detected by FACScan flow cytometer at 488 nm excitation wavelength, bacterial solutions (containing PI dye) without N4 treatment were used as controls.

MRSA = assay: MRSA-mediated skin infection model; assay type: in vivo, mouse; design: bacterial load in skin tissue, Day 5 / bacterial load in skin tissue, Day 9: dose or concentration left out as unconfirmed; details: MRSA wound, n = 8
From the text: The mouse skin infection model was based on previous research with some modifications.^[ [62] ^] The mice utilized in the […] were consistent with those employed in the in vivo toxicity assessment. Forty‐eight mice were randomly divided into three groups after a 3‐day pre‐feeding period, including control, N4‐treated and MRSA‐infected groups. Initially, the dorsal regions of the mice were depilated (Day ‐1). On the following day (Day 0), circular incisions were made on the dorsal surfaces, and 10 µL of saline‐diluted MRSA suspension (OD600 = 0.2) was applied to the wounds of the mice in N4‐treated and MRSA‐infected groups, while an equivalent volume of saline was administered to the wounds in the control mice. […] The above treatments were repeated after […] (Day 3). Throughout the experimental period, representative images of the wounds were captured.
Mice were euthanized on Days 5 and 9 post‐infection, and skin tissue homogenates were quantified for bacterial load. Subsequently, the supernatants of skin tissue homogenates from mice on Day 9 were selected for the detection of inflammatory factors, and wound tissues were collected for histological, Masson and immunofluorescence analyses.

[7] = N4 10 mg kg^−1 i.p., vs infected group, p < 0.05
[8] = Day 9, vs infected group, p < 0.05

N=C(N)NCCC[C@H](NC(=O)[C@@H](CCCNC(=N)N)NC(=O)[C@H](Cc1cccc2ccccc12)NC(=O)[C@H](Cc1cccc2ccccc12)NC(=O)[C@H](Cc1cccc2ccccc12)NC(=O)[C@@H](N)Cc1cccc2ccccc12)C(=O)N[C@@H](CCCNC(=N)N)C(=O)N1CCC[C@H]1C(=O)O (stereo in doubt) [Peptide N4]
critical aggregation concentration (CAC) [1]: 5.78 µM
ATP levels decreased to (E. coli ATCC 25922 [2]): 66.07%
time to eliminate all S. aureus ATCC 29213 cells (S. aureus ATCC 29213 [3]; 1 × MIC): ≤ 3000 s
time to eliminate all S. aureus ATCC 29213 cells (S. aureus ATCC 29213 [3]; 4 × MIC): ≤ 1200 s
bacterial load, kidney (E. coli; E. coli peritonitis-sepsis, N4 10 mg kg^−1 i.p. 1 h after infection, infected group 6.62): 5.96 log10 CFU g^−1
bacterial load, liver (E. coli; E. coli peritonitis-sepsis, N4 10 mg kg^−1 i.p. 1 h after infection, infected group 6.87): 6.07 log10 CFU g^−1
bacterial load, spleen (E. coli; E. coli peritonitis-sepsis, N4 10 mg kg^−1 i.p. 1 h after infection, infected group 6.97): 6.28 log10 CFU g^−1
bacterial load, peritoneum (E. coli; E. coli peritonitis-sepsis, N4 10 mg kg^−1 i.p. 1 h after infection, infected group 7.48): 6.37 log10 CFU
serum levels of anti-inflammatory cytokine IL-10 (E. coli; [7]): increased
serum levels of pro-inflammatory cytokines (IL-1β, IL-6, TNF-α) (E. coli; [7]): significant decreased
zeta potential [4]: 6.99 mV
red (PI)/green (SYTO 9) fluorescence overlap rate (E. coli ATCC 25922 [5]; 16 × 10^−6 M N4, E. coli ATCC 25922, ImageJ): 79.11%
red (PI)/green (SYTO 9) fluorescence overlap rate (E. coli ATCC 25922 [5]; 256 × 10^−6 M N4, E. coli ATCC 25922, ImageJ): 99.29%
PI-positive proportion (S. aureus ATCC 29213 [6]): 36.7%
bacterial load in skin tissue, Day 9 (MRSA; 10 µL of N4, twice a day on Day 1 and Day 3, topical, infected group 6.89): 6.12 log10 CFU g^−1
bacterial load in skin tissue, Day 5 (MRSA; 10 µL of N4, twice a day on Day 1 and Day 3, topical, infected group 7.1): 6.59 log10 CFU g^−1
anti-inflammatory cytokine IL-10 in supernatant of skin tissues (MRSA; [8]): significant increase
pro-inflammatory cytokines (IL-1β, IL-6, TNF-α) in supernatant of skin tissues (MRSA; [8]): significant decrease
